Measurements as given in paper PMC7680425 (Cell chemical biology, 2020).

Columns and labels:
PfROM4 [1] = test: Merozoite adhesin shedding assay: EBA175 shedding by PfROM4; format: cell-based, P. falciparum; conditions: 10μM RiKa (p=0.0014) or 25mM EGTA, 90 min at 37°C
PfROM4 [2] = format: cell-based, P. falciparum; conditions: transfected HEK293T cells

Molecule: O=C(O)CN(CCOCCOCCN(CC(=O)O)CC(=O)O)CC(=O)O [EGTA]
- shedding of EBA175 by PfROM4 from free merozoites (PfROM4 [1]): did not inhibit

Molecule: Ac-KRFRSMQYSA-CHO (Ac-KRFRSMQYSA-aldehyde; SMILES CSCC[C@H](NC(=O)[C@H](CO)NC(=O)[C@H](CCCNC(=N)N)NC(=O)[C@H](Cc1ccccc1)NC(=O)[C@H](CCCNC(=N)N)NC(=O)[C@H](CCCCN)NC(C)=O)C(=O)N[C@@H](CCC(N)=O)C(=O)N[C@@H](Cc1ccc(O)cc1)C(=O)N[C@@H](CO)C(=O)N[C@@H](C)C=O)
- inhibition of EBA175 processing by PfROM4 (PfROM4 [2]): abrogated PfROM4 inhibition
